Data published in patent EP4230620A1, “SUBSTITUTED N-AMINO-N-BENZOIC ACID URACILS, THEIR SALTS AND USE OF SAID COMPOUNDS AS HERBICIDAL AGENTS” (Bayer Aktiengesellschaft, priority 2022, dated 2023).

Tests used:
Assay type in all cases: in vivo
[1] = test system: Pharbitis purpurea; experiment: Post-emergence herbicidal action in greenhouse against PHBPU; conditions: visual rating after ca. 3 weeks
Source text: (§1) Biologische Beispiele: • Die folgenden Abkürzungen werden für die in den folgenden Tabellen aufgeführten Kultur- und Schadpflanzen verwendet: ABUTH: Abutilon theophrasti ALOMY: Alopecurus myosuroides AMARE: Amaranthus retroflexus BRSNS: Brassica napus DIGSA: Digitaria sanguinalis ECHCG: Echinochloa crus-galli GLXMA: Glycine max KCHSC: Kochia scoparia LOLRI: Lolium rigidum MATIN: Matricaria inodora ORYZA: Oryza sativa PHPBU: Pharbitis purpurea POLCO: Polygonum convolvulus SETVI: Setaria viridis VERPE: Veronica persica VIOTR: Viola tricolor TRZAS: Triticum aestivum ZEAMX: Zea mays • A. Herbizide Wirkung im Nachauflauf
(§2) Samen von mono- bzw. dikotylen Unkrautpflanzen wurden in Kunststoff- oder Holzfasertöpfen in sandigem Lehmboden ausgelegt, mit Erde abgedeckt und im Gewächshaus unter kontrollierten Wachstumsbedingungen angezogen. 2 bis 3 Wochen nach der Aussaat wurden die Versuchspflanzen im Einblattstadium behandelt. Die in Form von benetzbaren Pulvern (WP) oder als Emulsionskonzentrate (EC) formulierten erfindungsgemäßen Verbindungen wurden dann als wässrige Suspension bzw. Emulsion unter Zusatz von 0,5% Additiv mit einer Wasseraufwandmenge von umgerechnet 600 l/ha auf die grünen Pflanzenteile gesprüht. Nach ca. 3 Wochen Standzeit der Versuchspflanzen im Gewächshaus, unter optimalen Wachstumsbedingungen, wurde die Wirkung der Präparate visuell im Vergleich zu unbehandelten Kontrollen bonitiert. Beispielsweise bedeutet 100% Wirkung = Pflanzen sind abgestorben, 0% Wirkung = wie Kontrollpflanzen.
(§3) In den nachstehenden Tabellen A1 bis A11 sind die Wirkungen ausgewählter Verbindungen der allgemeinen Formel (I) gemäß der Tabelle 1 auf verschiedene Schadpflanzen und einer Aufwandmenge entsprechend 20 g/ha und niedriger, die gemäß zuvor genannter Versuchsvorschrift erhalten wurden, dargestellt. Tabelle A1a: Nachauflaufwirkung bei 1,25 g/ha gegen ABUTH in %

[2] = test system: Oryza sativa; experiment: Post-emergence action on crop plants in greenhouse, ORYZA; conditions: crop plant, visual rating after ca. 3 weeks, 100% = plants dead, 0% = like control plants
Source text: as §1
as §2, with “Kulturpflanzen” for “Unkrautpflanzen”
as §3, with “B1” for “A1”, “B4” for “A11”, “Kulturpflanzen” for “Schadpflanzen”, “B1a:” for “A1a:”, “ZEAMX” for “ABUTH”

[3] = test system: Amaranthus retroflexus; experiment: Post-emergence herbicidal action in greenhouse against AMARE; conditions: post-emergence spray, 600 l/ha water, visual rating after ca. 3 weeks vs untreated controls, 100% = plants dead, 0% = like control plants
Source text: as §1, §2, §3

[4] = test system: Digitaria sanguinalis; experiment: Post-emergence herbicidal action in greenhouse against DIGSA; conditions: visual rating after ca. 3 weeks
Source text: as §1, §2, §3

[5] = test system: Setaria viridis; experiment: Post-emergence herbicidal action in greenhouse against SETVI; conditions: visual rating after ca. 3 weeks
Source text: as §1, §2, §3

[6] = test system: Abutilon theophrasti; experiment: Post-emergence herbicidal action in greenhouse against ABUTH; conditions: post-emergence spray, 600 l/ha water, visual rating after ca. 3 weeks vs untreated controls, 100% = plants dead, 0% = like control plants
Source text: as §1, §2, §3

[7] = test system: Alopecurus myosuroides; experiment: Post-emergence herbicidal action in greenhouse against ALOMY; conditions: 20 g/ha; post-emergence spray, 600 l/ha water; visual rating after ca. 3 weeks vs untreated controls; 100% = plants dead, 0% = like control plants
Source text: as §1, §2, §3

[8] = test system: Polygonum convolvulus; experiment: Post-emergence herbicidal action in greenhouse against POLCO; conditions: visual rating after ca. 3 weeks
Source text: as §1, §2, §3

[9] = test system: Matricaria inodora; experiment: Post-emergence herbicidal action in greenhouse against MATIN; conditions: visual rating after ca. 3 weeks
Source text: as §1, §2, §3

[10] = test system: Triticum aestivum; experiment: Post-emergence action on crop plants in greenhouse, TRZAS; conditions: crop plant, visual rating after ca. 3 weeks, 100% = plants dead, 0% = like control plants
Source text: as §1
as §2, with “Kulturpflanzen” for “Unkrautpflanzen”
as §3, with “B1” for “A1”, “B4” for “A11”, “Kulturpflanzen” for “Schadpflanzen”, “B1a:” for “A1a:”, “ZEAMX” for “ABUTH”

[11] = test system: Veronica persica; experiment: Post-emergence herbicidal action in greenhouse against VERPE; conditions: visual rating after ca. 3 weeks
Source text: as §1, §2, §3

[12] = test system: Viola tricolor; experiment: Post-emergence herbicidal action in greenhouse against VIOTR; conditions: visual rating after ca. 3 weeks
Source text: as §1, §2, §3

[13] = test system: Zea mays; experiment: Post-emergence action on crop plants in greenhouse, ZEAMX; conditions: 1,25 g/ha, crop plant, post-emergence, visual rating after ca. 3 weeks; 100% = plants dead, 0% = like control plants
Source text: as §1
as §2, with “Kulturpflanzen” for “Unkrautpflanzen”
as §3, with “B1” for “A1”, “B4” for “A11”, “Kulturpflanzen” for “Schadpflanzen”, “B1a:” for “A1a:”, “ZEAMX” for “ABUTH”

Compound	Nachauflaufwirkung gegen PHBPU ([1]; 1,25 g/ha) [%]	Nachauflaufwirkung gegen PHBPU ([1]; 5 g/ha) [%]	Nachauflaufwirkung gegen PHBPU ([1]; 20 g/ha) [%]	Nachauflaufwirkung gegen ORYZA ([2]; 1,25 g/ha) [%]	Nachauflaufwirkung gegen AMARE ([3]; 1,25 g/ha) [%]	Nachauflaufwirkung gegen AMARE ([3]; 5 g/ha) [%]	Nachauflaufwirkung gegen AMARE ([3]; 20 g/ha) [%]	Nachauflaufwirkung gegen DIGSA ([4]; 20 g/ha) [%]	Nachauflaufwirkung gegen SETVI ([5]; 20 g/ha) [%]	Nachauflaufwirkung gegen ABUTH ([6]; 5 g/ha) [%]	Nachauflaufwirkung gegen ABUTH ([6]; 20 g/ha) [%]	Nachauflaufwirkung gegen POLCO ([8]; 20 g/ha) [%]	Nachauflaufwirkung gegen MATIN ([9]; 20 g/ha) [%]	Nachauflaufwirkung gegen TRZAS ([10]; 1,25 g/ha) [%]	Nachauflaufwirkung gegen TRZAS ([10]; 5 g/ha) [%]	Nachauflaufwirkung gegen VERPE ([11]; 5 g/ha) [%]	Nachauflaufwirkung gegen VERPE ([11]; 20 g/ha) [%]	Nachauflaufwirkung gegen VIOTR ([12]; 1,25 g/ha) [%]	Nachauflaufwirkung gegen VIOTR ([12]; 5 g/ha) [%]	Nachauflaufwirkung gegen VIOTR ([12]; 20 g/ha) [%]	other results
C=CCOC(=O)C(C)(C)OC(=O)c1cc(-n2c(=O)cc(C(F)(F)F)n(N)c2=O)c(F)cc1Cl [I.1-471, 1-(Allyloxy)-2-methyl-1-oxopropan-2-yl-5-[3-amino-2,6-dioxo-4-(trifluormethyl)-3,6-dihydropyrimidin-1(2H)-yl]-2-chlor-4-fluorbenzoat]	100	100	100	0	100	100	100	100	100	100	100	100	100	0	20	100	100	90	100	100	Nachauflaufwirkung gegen DIGSA ([4]; 5 g/ha): 100%; Nachauflaufwirkung gegen SETVI ([5]; 1,25 g/ha): 100%; Nachauflaufwirkung gegen SETVI ([5]; 5 g/ha): 100%; Nachauflaufwirkung gegen ABUTH ([6]; 1,25 g/ha): 100%; Nachauflaufwirkung gegen ALOMY [7]: 100%; Nachauflaufwirkung gegen POLCO ([8]; 5 g/ha): 100%; Nachauflaufwirkung gegen MATIN ([9]; 5 g/ha): 100%; Nachauflaufwirkung gegen VERPE ([11]; 1,25 g/ha): 100%
CC(C)=NOC(=O)C(C)(C)OC(=O)c1cc(-n2c(=O)cc(C(F)(F)F)n(N)c2=O)ccc1Cl [I.2-491]	90	100	100	0	80	100	100	100	100	100	100	100	100	0	0	100	100	80	100	100	Nachauflaufwirkung gegen ORYZA ([2]; 5 g/ha): 0%; Nachauflaufwirkung gegen DIGSA ([4]; 5 g/ha): 100%; Nachauflaufwirkung gegen SETVI ([5]; 1,25 g/ha): 90%; Nachauflaufwirkung gegen SETVI ([5]; 5 g/ha): 100%; Nachauflaufwirkung gegen MATIN ([9]; 5 g/ha): 80%; Nachauflaufwirkung gegen TRZAS ([10]; 20 g/ha): 20%
CC(C)(OC(=O)c1cc(-n2c(=O)cc(C(F)(F)F)n(N)c2=O)ccc1Cl)C(=O)OCC#N [I.2-176, 1-(Cyanmethoxy)-2-methyl-1-oxopropan-2-yl-5-[3-amino-2,6-dioxo-4-(trifluormethyl)-3,6-dihydropyrimidin-1(2H)-yl]-2-chlorbenzoat]	90	100	100	0	100	100	100	100	100	100	100	100	80	0	0	90	100	80	100	100	Nachauflaufwirkung gegen ORYZA ([2]; 5 g/ha): 20%; Nachauflaufwirkung gegen ZEAMX [13]: 20%; Nachauflaufwirkung gegen ABUTH ([6]; 1,25 g/ha): 80%
CC(C)(OC(=O)c1cc(-n2c(=O)cc(C(F)(F)F)n(N)c2=O)ccc1Cl)C(=O)OCc1ccccn1 [I.2-286]	100	100	100	0	80	100	100	100	100	100	100	100	100	0	0	100	100	100	100	100	Nachauflaufwirkung gegen ORYZA ([2]; 5 g/ha): 0%; Nachauflaufwirkung gegen DIGSA ([4]; 5 g/ha): 80%; Nachauflaufwirkung gegen SETVI ([5]; 1,25 g/ha): 90%; Nachauflaufwirkung gegen SETVI ([5]; 5 g/ha): 100%; Nachauflaufwirkung gegen ZEAMX [13]: 20%; Nachauflaufwirkung gegen ABUTH ([6]; 1,25 g/ha): 80%; Nachauflaufwirkung gegen POLCO ([8]; 5 g/ha): 100%; Nachauflaufwirkung gegen TRZAS ([10]; 20 g/ha): 10%
COCCOC(=O)C(C)(C)OC(=O)c1cc(-n2c(=O)cc(C(F)(F)F)n(N)c2=O)ccc1Cl [I.2-1]	80	90	100	0	100	100	100	100	100	100	100	100	100	0	0	100	100	90	100	100	Nachauflaufwirkung gegen ORYZA ([2]; 5 g/ha): 0%; Nachauflaufwirkung gegen SETVI ([5]; 1,25 g/ha): 100%; Nachauflaufwirkung gegen SETVI ([5]; 5 g/ha): 100%; Nachauflaufwirkung gegen ABUTH ([6]; 1,25 g/ha): 90%; Nachauflaufwirkung gegen ALOMY [7]: 80%; Nachauflaufwirkung gegen MATIN ([9]; 5 g/ha): 90%; Nachauflaufwirkung gegen TRZAS ([10]; 20 g/ha): 10%; Nachauflaufwirkung gegen VERPE ([11]; 1,25 g/ha): 80%
